Laboratory results taken from ChEMBL document CHEMBL1126308, “Alfred Burger Award address. A half century in medicinal chemistry with major emphasis on pain-relieving drugs and their antagonists” (1992).
Activity calls are given as the source filed them. The rule behind the calls is not given here.

How the values were obtained:
Monkey [1] = assay: Analgesic activity in monkeys.; assay type: functional, Cercopithecidae
Mus musculus [2] = species on record: Mus musculus; assay: Compound was evaluated for the inhibition of [3H]naloxone binding to mouse brain homogenate at 1 nM in the presence of 100 mM sodium; ED50 = 1500-2000 nM; assay type: functional
[3] = biological target: Mu-type opioid receptor (Rattus norvegicus) (UniProt P33535); assay: Ratio between the ED50 values in presence and absence of sodium; value ranges from 3.8-5; assay type: functional; conditions: Mus musculus
Mus musculus [4] = species on record: Mus musculus; assay: (§1) Compound was evaluated for the inhibition of [3H]naloxone binding to mouse brain homogenate at 1 nM in the absence of sodium; assay type: functional
Mus musculus [5] = species on record: Mus musculus; assay: Compound was evaluated for the hotplate analgesic activity in mouse; assay type: functional; set-up: unit not given here
Mus musculus [6] = species on record: Mus musculus; assay: Compound was evaluated for the inhibition of [3H]naloxone binding to mouse brain homogenate at 1 nM in the presence of 100 mM sodium; ED50 = […] nM; assay type: functional
Mus musculus [7] = species on record: Mus musculus; assay: Ratio between the ED50 values in presence and absence of sodium; value ranges from […]; assay type: functional
Monkey [8] = assay: Physical dependence capacity (PDC) of the compound; intermed physical dependence capacity; assay type: functional, organism-based; conditions: Cercopithecidae
Monkey [9] = assay: Antagonistic potency of the compound; not active; assay type: functional, organism-based; conditions: Cercopithecidae
Monkey [10] = assay: Physical dependence capacity (PDC) of the compound; very low physical dependence capacity; assay type: functional, organism-based; conditions: Cercopithecidae
Mus musculus [11] = species on record: Mus musculus; assay: (§2) Compound was evaluated for the inhibition of [3H]naloxone binding to mouse brain homogenate at 1 nM in the presence of 100 mM sodium; assay type: functional
Mus musculus [12] = species on record: Mus musculus; assay: Ratio between the ED50 values in presence and absence of sodium; assay type: functional
Monkey [13] = assay: Physical dependence capacity (PDC) of the compound; low physical dependence capacity; assay type: functional, organism-based; conditions: Cercopithecidae
Monkey [14] = assay: Physical dependence capacity (PDC) of the compound; no physical dependence capacity; assay type: functional, organism-based; conditions: Cercopithecidae
Monkey [15] = assay: Physical dependence capacity (PDC) of the compound; high physical dependence capacity; assay type: functional, organism-based; conditions: Cercopithecidae
Mus musculus [16] = species on record: Mus musculus; assay: Ratio between the ED50 values in presence and absence of sodium; value ranges from 4-5; assay type: functional
Mus musculus [17] = species on record: Mus musculus; assay: Compound was evaluated for the inhibition of [3H]naloxone binding to mouse brain homogenate at 1 nM in the presence of 100 mM sodium; ED50 = 800-1000 nM; assay type: functional
Mus musculus [18] = species on record: Mus musculus; assay: Ratio between the ED50 values in presence and absence of sodium; value ranges from 1.2-1.5; assay type: functional
[19] = biological target: Mu-type opioid receptor (Mus musculus) (UniProt P42866); assay: Compound was evaluated for the inhibition of [3H]naloxone binding to opioid receptor mu of mouse brain homogenate at 1 nM in the presence of 100 mM sodium; ED50=600-700 nM; assay type: tissue-based
[20] = biological target: Mu-type opioid receptor (Mus musculus) (UniProt P42866); assay: as §1; assay type: tissue-based
Mus musculus [21] = species on record: Mus musculus; assay: Compound was evaluated for the hotplate analgesic activity; IA=inactive; assay type: functional, organism-based
[22] = biological target: Mu-type opioid receptor (Mus musculus) (UniProt P42866); assay: Compound was evaluated for the inhibition of [3H]-naloxone binding to mouse brain homogenate at 1 nM in the presence of 100 mM sodium; assay type: tissue-based
[23] = biological target: Mu-type opioid receptor (Mus musculus) (UniProt P42866); assay: Compound was evaluated for the inhibition of [3H]naloxone binding to mouse brain homogenate at 1 nM in the absence of sodium; ED50 = 7-10 nM; assay type: tissue-based
[24] = biological target: Mu-type opioid receptor (Mus musculus) (UniProt P42866); assay: as §2; assay type: tissue-based
[25] = biological target: Mu-type opioid receptor (Mus musculus) (UniProt P42866); assay: Ratio between the ED50 values in presence and absence of sodium; value ranges from 7-10
[26] = biological target: Mu-type opioid receptor (Mus musculus) (UniProt P42866); assay: Compound was evaluated for the inhibition of [3H]naloxone binding to opioid receptor mu of mouse brain homogenate at 1 nM in the absence of sodium; assay type: tissue-based
[27] = biological target: Mu-type opioid receptor (Mus musculus) (UniProt P42866); assay: Compound was evaluated for the inhibition of [3H]naloxone binding to opioid receptor mu mouse brain homogenate at 1 nM in the presence of 100 mM sodium; ED50 = 40-50 nM; assay type: tissue-based
Mus musculus [28] = species on record: Mus musculus; assay: Ratio between the ED50 values in presence and absence of sodium; value ranges from 2-2.5; assay type: functional
Mus musculus [29] = species on record: Mus musculus; assay: Compound was evaluated for the hotplate analgesic activity; assay type: functional
Monkey [30] = assay: aAntagonistic potency of the compound; not active; assay type: functional, organism-based; conditions: Cercopithecidae
[31] = Cercopithecidae, in Primates, read-out: ED50

Sequence of Mu-type opioid receptor (Mus musculus) (P42866 whole entry): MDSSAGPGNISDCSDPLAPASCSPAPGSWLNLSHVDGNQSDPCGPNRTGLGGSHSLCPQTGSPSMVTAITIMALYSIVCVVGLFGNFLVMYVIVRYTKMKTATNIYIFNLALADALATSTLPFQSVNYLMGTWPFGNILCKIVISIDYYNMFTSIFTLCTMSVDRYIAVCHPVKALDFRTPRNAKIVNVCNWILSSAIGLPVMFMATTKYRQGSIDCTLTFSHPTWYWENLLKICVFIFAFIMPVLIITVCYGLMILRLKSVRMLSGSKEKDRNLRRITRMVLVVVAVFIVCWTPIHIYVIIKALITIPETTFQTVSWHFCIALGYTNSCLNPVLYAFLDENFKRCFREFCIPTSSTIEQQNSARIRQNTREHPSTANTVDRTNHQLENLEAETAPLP
Sequence of Mu-type opioid receptor (Rattus norvegicus) (P33535 whole entry): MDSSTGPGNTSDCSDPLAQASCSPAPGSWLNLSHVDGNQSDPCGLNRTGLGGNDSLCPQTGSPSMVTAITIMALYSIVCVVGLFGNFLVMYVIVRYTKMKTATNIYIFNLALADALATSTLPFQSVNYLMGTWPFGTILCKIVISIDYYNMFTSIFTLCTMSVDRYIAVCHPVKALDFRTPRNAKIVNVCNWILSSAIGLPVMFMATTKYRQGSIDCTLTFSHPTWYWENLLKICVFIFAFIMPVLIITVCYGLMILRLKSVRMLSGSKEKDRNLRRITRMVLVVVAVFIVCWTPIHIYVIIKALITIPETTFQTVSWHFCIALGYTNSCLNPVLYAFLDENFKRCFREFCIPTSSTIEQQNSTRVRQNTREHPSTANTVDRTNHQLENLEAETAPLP

Structure (SMILES): CN1CC[C@]2(C)CC1Cc1ccc(O)cc12 (stereo in doubt; form 1) [listing 1 of 2 here]
- ED50 (Monkey [1]): 22.9 mg/kg

Structure (SMILES): CCC(=O)C1(c2cccc(O)c2)CCN(CC)CC1
- ED50 (Mus musculus [2]): 1500 nM
- Ratio [3]: 3.8
- ED50 (Mus musculus [4]): 400 nM
- ED50 (Mus musculus [5]): 67.2

Structure (SMILES): CCCCN1CCC(C(=O)CC)(c2cccc(O)c2)CC1
- ED50 (Mus musculus [6]): 600 nM
- Ratio (Mus musculus [7]): 12
- ED50 (Mus musculus [4]): 50 nM
- ED50 (Mus musculus [5]): 4.6

Structure (SMILES): COc1ccc2c3c1O[C@H]1[C@@H](O)C=C[C@H]4[C@@H](C2)N(C)CC[C@@]341 [CODEINE]
- PDC (Monkey [8]): Partially active
- ED50 (Monkey [1]; [31]): 7.5 mg/kg
- Antagonist potency (Monkey [9]): inactive

Structure (SMILES): CC1C2Cc3ccc(O)cc3[C@@H]1CCN2C (stereo in doubt; form 1)
- ED50 (Monkey [1]): 1.1 mg/kg

Structure (SMILES): CN1CC[C@]2(C)CC1Cc1ccc(O)cc12 (stereo in doubt; form 1) [listing 2 of 2 here]
- PDC (Monkey [10]): no physical dependence capacity
- Antagonist potency (Monkey [9]): inactive

Structure (SMILES): CCCCCN1CCC(C(=O)CC)(c2cccc(O)c2)CC1
- ED50 (Mus musculus [11]): 30 nM
- ED50 (Mus musculus [4]): 8 nM
- Ratio (Mus musculus [12]): 3.8
- ED50 (Mus musculus [5]): 0.78

Structure (SMILES): CC[C@]12CCN(C)C(Cc3ccc(O)cc31)C2
- PDC (Monkey [13]): low physical dependence capacity
- Antagonist potency (Monkey [9]): inactive
- PDC (Monkey [14]): low physical dependence capacity

Structure (SMILES): CCC[C@]12CCN(C)C(Cc3ccc(O)cc31)[C@@H]2C
- PDC (Monkey [15]): high physical dependence capacity
- Antagonist potency (Monkey [9]): inactive
- PDC (Monkey [14]): high physical dependence capacity

Structure (SMILES): CC[C@H]1C2Cc3ccc(O)cc3[C@]1(CC)CCN2C
- PDC (Monkey [8]): intermed physical dependence capacity
- Antagonist potency (Monkey [9]): inactive
- PDC (Monkey [14]): intermed physical dependence capacity

Structure (SMILES): C[C@H]1C2Cc3ccc(O)cc3[C@]1(C)CCN2C
- ED50 (Monkey [1]; Cercopithecidae): inactive
- ED50 (Monkey [1]; [31]): 0.6 mg/kg
- Antagonist potency (Monkey [9]): inactive
- PDC (Monkey [14]): no physical dependence capacity

Structure (SMILES): CC1C2Cc3ccc(O)cc3[C@@H]1CCN2C (stereo in doubt; form 2)
- ED50 (Monkey [1]): 4.3 mg/kg

Structure (SMILES): CCCN1CCC(C(=O)CC)(c2cccc(O)c2)CC1
- Ratio (Mus musculus [16]): 4
- ED50 (Mus musculus [17]): 800 nM
- ED50 (Mus musculus [4]): 200 nM
- ED50 (Mus musculus [5]): 16

Structure (SMILES): CCCCCCCCCCN1CCC(C(=O)CC)(c2cccc(O)c2)CC1
- Ratio (Mus musculus [18]): 1.2
- ED50 [19]: 600 nM
- ED50 [20]: 500 nM
- ED50 (Mus musculus [21]): inactive

Structure (SMILES): CN1CC[C@]2(C)CC1Cc1ccc(O)cc12 (stereo in doubt; form 3) [listing 1 of 2 here]
- ED50 (Monkey [1]): 1.8 mg/kg

Structure (SMILES): CC1C2Cc3ccc(O)cc3[C@]1(C)CCN2C (stereo in doubt; form 2)
- ED50 (Monkey [1]): 1.2 mg/kg

Structure (SMILES): CCCCCCCCCN1CCC(C(=O)CC)(c2cccc(O)c2)CC1
- ED50 [22]: 700 nM
- ED50 [20]: 700 nM
- Ratio (Mus musculus [12]): 1
- ED50 (Mus musculus [21]): inactive

Structure (SMILES): CCC(=O)C1(c2cccc(O)c2)CCN(C)CC1 [KETOBEMIDONE]
- ED50 [23]: 7 nM
- ED50 [24]: 70 nM
- Ratio [25]: 7
- ED50 (Mus musculus [5]): 2.1

Structure (SMILES): CCCCCCCN1CCC(C(=O)CC)(c2cccc(O)c2)CC1
- ED50 [26]: 20 nM
- ED50 [27]: 40 nM
- Ratio (Mus musculus [28]): 2
- ED50 (Mus musculus [29]): 9000 nM

Structure (SMILES): CN1CC[C@]2(C)CC1Cc1ccc(O)cc12 (stereo in doubt; form 2)
- ED50 (Monkey [1]): 3.2 mg/kg

Structure (SMILES): CN1CC[C@]23c4c5ccc(O)c4O[C@H]2[C@@H](O)C=C[C@H]3[C@H]1C5 [MORPHINE]
- Antagonist potency (Monkey [30]): inactive
- PDC (Monkey [15]): Active
- ED50 (Monkey [1]; [31]): 1.2 mg/kg

Structure (SMILES): CN1CC[C@]2(C)CC1Cc1ccc(O)cc12 (stereo in doubt; form 3) [listing 2 of 2 here]
- PDC (Monkey [14]): no physical dependence capacity

Structure (SMILES): CC1C2Cc3ccc(O)cc3[C@]1(C)CCN2C (stereo in doubt; form 1)
- ED50 (Monkey [1]): 0.1 mg/kg

Structure (SMILES): CN1CC[C@@H]2CC1Cc1ccc(O)cc12
- ED50 (Monkey [1]; [31]): 4.5 mg/kg

Structure (SMILES): CCCCCCN1CCC(C(=O)CC)(c2cccc(O)c2)CC1
- ED50 (Mus musculus [11]): 40 nM
- ED50 (Mus musculus [4]): 20 nM
- Ratio (Mus musculus [12]): 2
- ED50 (Mus musculus [5]): 7.5

Structure (SMILES): CCCCCCCCN1CCC(C(=O)CC)(c2cccc(O)c2)CC1
- ED50 [22]: 200 nM
- ED50 [20]: 200 nM
- Ratio (Mus musculus [12]): 1
- ED50 (Mus musculus [29]): 26500 nM
